Legend:
C57BL/6NTac mice = experiment: total body irradiation survival (hematopoietic syndrome); type: in vivo, mouse; details: 9.5 Gy
Protocol: FIG. 11. MMS350 was dissolved in PBS and injected IP at 20 mg/kg. The mice were irradiated to 9.5 Gy total body irradiation and then injected at 4 or 24 hr after irradiation.
FIG. 13. In vivo mitigation of total body irradiation by MMS350. MMS350 was dissolved in water at a concentration of 2 mg/ml. C57BL/6NTac mice (n=15/group) were irradiated to 9.5 Gy total body irradiation and injected intraperitoneally with 10 mg/kg of MMS350 at 4 or 24 hr. after irradiation. The mice were followed for the development of the hematopoietic syndrome at which time the mice were sacrificed.
MMS350 was delivered by intraperitoneal injection to C57BL/6 mice (n=15/group) before or after the 9.5 Gy of total body irradiation (a dose which kills at least 50% of mice at 30 days) and indicative of death from the hematopoietic syndrome (bone marrow failure).
Mice were irradiated using JL Shepherd Mark 1 Model 68 irradiator to 9.25 total body irradiation dose or a Varian Linear Accelerator (Varian Medical Systems, Inc, Palo Alto, Calif.) to 20 Gy for pulmonary irradiation according to published methods (2, 10, 13).
Mice were injected intra-peritoneally with MMS350 or JP4-039 (GS-nitroxide) in 50% cremphor/50% ethanol according to published methods. For long-term administration of MMS350, the drug was administered in water bottles with bottles changed every 7 days. The dose of drug per bottle was 100 μM MMS350 starting on day 88. The estimated total amount consumed by each animal daily was 10.9 μg based on a mouse drinking 5 ml of water per day. Chimeric mice irradiated to the thoracic cavity were placed 30 days later on MMS350 in water containing 100 mM MMS350. On day 88 after thoracic irradiation of non-chimeric mice, mice were placed on […] MMS350 in drinking water.

PKD1 = target: T1, PKD1 (Homo sapiens, UniProt Q15139); experiment: radiometric PKD1 inhibition assay, cosolvent interference; type: biochemical; details: stock solutions in 25% 3/NMP
T1 sequence (Q15139 1-912): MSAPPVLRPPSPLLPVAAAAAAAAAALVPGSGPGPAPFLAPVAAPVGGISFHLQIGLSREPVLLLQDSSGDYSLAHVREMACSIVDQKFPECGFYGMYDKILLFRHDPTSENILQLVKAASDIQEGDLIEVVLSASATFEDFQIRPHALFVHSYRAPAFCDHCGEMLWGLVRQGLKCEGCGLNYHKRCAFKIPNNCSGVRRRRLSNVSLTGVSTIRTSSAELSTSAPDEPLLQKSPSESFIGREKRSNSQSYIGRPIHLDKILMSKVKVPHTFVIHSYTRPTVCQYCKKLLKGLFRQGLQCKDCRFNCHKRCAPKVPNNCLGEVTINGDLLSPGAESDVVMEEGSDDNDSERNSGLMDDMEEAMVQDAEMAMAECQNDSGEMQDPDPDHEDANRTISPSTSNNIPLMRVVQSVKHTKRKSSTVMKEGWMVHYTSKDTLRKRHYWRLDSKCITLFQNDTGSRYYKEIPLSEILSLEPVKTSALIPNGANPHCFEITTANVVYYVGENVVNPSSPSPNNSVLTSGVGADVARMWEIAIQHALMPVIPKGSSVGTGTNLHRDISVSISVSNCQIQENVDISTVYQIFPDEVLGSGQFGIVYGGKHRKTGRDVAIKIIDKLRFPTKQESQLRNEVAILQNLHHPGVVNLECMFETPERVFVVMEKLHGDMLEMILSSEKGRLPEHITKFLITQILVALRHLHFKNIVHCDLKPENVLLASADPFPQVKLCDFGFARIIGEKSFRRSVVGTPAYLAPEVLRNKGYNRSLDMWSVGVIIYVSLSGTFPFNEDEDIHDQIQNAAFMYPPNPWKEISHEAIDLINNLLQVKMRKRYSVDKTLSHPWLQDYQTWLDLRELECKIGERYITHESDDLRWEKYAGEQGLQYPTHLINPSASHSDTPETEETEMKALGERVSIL
Protocol: FIG. 8. Plot of PKD1 activity with compound concentrations of 1 μM. […] The % PKD1 activity is reported as the mean, and error bars represent SEM (n=3). The % PKD1 activity was determined as previously described.
FIG. 9. Plot of PKD1 activity with compound concentrations of 10 μM. […] The % PKD1 activity is reported as the mean, and error bars represent SEM (n=3). The % PKD1 activity was determined as previously described.
Recently, a series of compounds with nanomolar to micromolar inhibitory activity against the serine/threonine protein kinase D (PKD) isoform PKD1 was disclosed (FIG. 7). Several lead structures, especially those containing a pyrimidine moiety, suffered from poor solubility not only in aqueous media but also in DMSO. To test the feasibility of using sulfoxide 3 as a cosolvent for in vitro assays, its use in the radiometric PKD1 inhibition assay was examined. Inhibitory activity at two concentrations (1 μM and 10 μM) was measured using compound stock solutions in three formulations: DMSO, NMP, and 25% 3/NMP (FIGS. 8 and 9).

[1] = storage in 25% w/w solutions of 3 and NMP; type: physicochemical; details: 25% w/w 3 and NMP at −20° C.
Protocol: Because sulfoxide 3 is a solid, it would have to be mixed with an appropriate water-soluble cosolvent to act as a compound storage additive. NMP was chosen for exploring this potential application due to its thermal stability and low toxicity. […] The compound test set (FIG. 2) was stored in 25% w/w solutions of 3 and NMP for 6 weeks at −20° C.

32D cl 3 cells = experiment: irradiated 32D cl 3 cells, cell number and viability; type: cell-based; details: 10 μM, 0-7 Gy, Day 3 or 5 after irradiation
Protocol: FIG. 10. The data are from a screening experiment where 32D cl 3 cells were irradiated to doses of 0, 1, 3, 5, or 7 Gy and placed in T25 flasks. Either JP4-039 or MM350 were added at 10 μM and incubated in a CO2 incubator at 37° C. At Day 3 or 5 after irradiation, the cells were counted and the viability determined.

CC1(C[S+]([O-])CC2(C)COC2)COC1 [compound 3, 3,3′-Sulfinylbis(methylene)bis(3-methyloxetane)]
survival after total body irradiation (C57BL/6NTac mice; 10 mg/kg intraperitoneally 4 hr after irradiation, p=0.0092): significantly increased survival
survival after total body irradiation (C57BL/6NTac mice; 10 mg/kg intraperitoneally 24 hr after irradiation, p=0.0097): significantly increased survival
protection against total body irradiation (C57BL/6NTac mice; intraperitoneal injection before irradiation): protector when delivered prior to irradiation
interference with the standard PKD1 inhibition assay (PKD1): did not interfere
behaviour of 3 in the storage solution [1]: partly precipitated from the solution
number of cells and viability after irradiation (32D cl 3 cells): comparable to JP4-039

— patent publication US9546144B2, “Bifunctional compounds” (University of Pittsburgh—of the Commonwealth System of …, priority 2011, dated 2017)
